Results taken from patent US20260224758A1, “ALPHA-SYNUCLEIN BINDERS AND METHODS OF USE” (Merck Sharp & Dohme LLC, priority 2023, published 2026).
Where two headings read alike, the source gives them in different places.

Key:
[1] = target: T1, triton-extracted alpha-synuclein from PD Tissue (Homo sapiens, UniProt P37840); test: Alpha-synuclein tissue homogenate binding assay (Assay 1), displacement of [^3H]-1000; conditions: for Selectivity ratio (Assay 2/Assay 1): Aβ Tissue Ki / α-synuclein Tissue Ki; for Ki: read-out: α-synuclein Tissue Ki (Assay 1)
T1 construct: tissue Analytic Biological Services Inc; host or cells: human PD temporal cortex grey matter, Triton X-100 insoluble pellet
Experimental: Frozen human brain tissues from PD patients were purchased from Analytic Biological Services Inc. The samples were post-mortem tissues from donors with clinical diagnosis of late stage of PD. Alpha-synuclein, tau and amyloid burden was determined through a combination of immunohistochemistry on frozen thin coronal sections, as well as alpha Lisa-based quantification of protein levels in a detergent insoluble protein fraction. A tissue sample of temporal cortex was identified from one donor as having moderate to high alpha-synuclein burden, low amyloid and minimal to no tau pathology. The detergent insoluble fraction of temporal cortex from this patient was used to support homogenate binding studies. Grey matter was dissected out of the temporal cortex tissue with a dissecting blade and minced with fine dissecting scissors. […] Homogenates were centrifuged at 100,000×g for 45 minutes. The pellet was resuspended in TBS-TX buffer, using a Polytron at highest setting for 30 seconds at 4° C. Homogenates were centrifuged at 100,000×g for 45 minutes and the pellet was resuspended in TBS-TX buffer. A BCA protein assay was performed on the final homogenate to determine the protein concentration. […] For displacement a-synuclein binding assay, compounds and control were solvated in dimethyl sulfoxide (DMSO) and transferred using focused acoustic energy by an Echo 655 liquid handling instrument (Beckman Coulter, Indianapolis, IN) into designated wells of uniquely bar coded 96-well v-bottom low binding polypropylene microplates (Thermo Scientific, 249946). Compound dose response curves were prepared in a 10-point, 3-fold fashion within columns 2-11 of the microplate from high to low compound concentrations. […] Liquid-handling steps for dispensing insoluble fractions of PD brain homogenates and radioligand were performed using a Bravo automated liquid handling platform equipped with a 96LT disposable tip head (Agilent Technologies, Santa Clara. CA). […] The incubation was terminated by rapid filtration through UniFilter-96 GF/C microplates (pre-treated for 30 minutes with 0.2% Polyethylenimine at 4° C.) by using a FilterMate Harvester (PerkinElmer). […] The bottom of each UniFilter-96 GF/C microplate was adhesively sealed (PerkinElmer 6005199) prior to the addition of 50 μL MicroScint-20 liquid scintillation cocktail (PerkinElmer 6013621) to each well. A clear adhesive seal (TopSeal-A PLUS, PerkinElmer 6050185) was then applied to the top of each microplate and counted 1 minute/well on MicroBeta^2 system (PerkinElmer.

[2] = target: aggregated beta amyloid in AD tissue (Homo sapiens, UniProt P05067); test: Competitive radioligand binding to pathological aggregated beta amyloid in AD tissue (Assay 2), displacement of [^3H]-105; conditions: Aβ-rich AD frontal cortex homogenate, [^3H]-105, Kd 11.0 nM
Experimental: Frozen human brain samples of Alzheimer's disease (AD) were purchased from Analytic Biological Services Inc. The samples were post-mortem tissue from donors with clinical diagnosis of AD and much of the white matter was dissected out of the frontal cortex in order to enrich the tissue preparations for gray matter. Brain homogenates of gray matter enriched frontal cortex were prepared by homogenizing the tissue in ice cold Phosphate Buffered Saline (PBS), pH 7.4 at 80 mg wet weight tissue per 1 ml for 45 seconds at 4° C., on setting 16 of Polytron. The homogenate was further diluted with ice cold PBS to 30 mg wet weight tissue per 1 ml and homogenized for an additional minute as described above. Homogenates were aliquoted in 5 ml/tube and stored at −70° C. until use.
Radioligand [^3H]-105, prepared as described in ACS Med. Chem. Lett., Vol. 2, pages 498-502, was used in this assay.
For Assay 2 unlabeled test compounds were dissolved in DMSO at 10 mM. Dilutions of tests compounds to various concentrations were made in 100% DMSO at 1000× final assay concentration and 0.225 μl aliquots were dispensed into assay plates. Brain homogenates were diluted to 0.5 mg/ml from original 30 mg/ml volume in Assay Buffer, and 200 μl were added to the assay plate for a final concentration of 100 ug wet weight/assay well. [^3H]-105 was prepared at 10× final concentration in Assay Buffer plus 20% DMSO and 25 μl was added to the assay plate for final assay concentration of 3.0 nM. The plates were incubated at 37° C. for 90 minutes. Unbound and bound ligand were separated by filtration of bound onto GF/B filter plates (pre-treated for 30 min with 0.1% PEI) using a Packard Filtermate and washing away unbound with 2.5 mil ice cold 5 mM Tris at pH 7.4. Filter plates were dried for 1 hr at 57° C. and 50 μl Microscint was added to each well of the plate. The plates were counted for ^3H cpm for 1 min per well using PerkinElmer TopCount.

[3] = insoluble fraction of PD brain homogenate, [^3H]-1000 3.0 nM, Kd 0.90 nM

Chain of aggregated beta amyloid in AD tissue (P05067 672-711 limits assumed): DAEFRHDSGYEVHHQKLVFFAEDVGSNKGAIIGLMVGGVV

Molecule	Selectivity ratio (Assay 2/Assay 1) [1]	Ki [1, 3] [nM]	Ki [2] [nM]	Ki [1] [nM]	Kd ([1]; radioligand [^3H]-1000, PD brain insoluble fraction) [nM]
COC[C@H]1CN(c2ncc(/C=C/c3ccc(-n4ccnc4)nc3)cn2)CCN1c1ncccn1 [Example 2, (R,E)-5-(2-(6-(1H-imidazol-1-yl)pyridin-3-yl)vinyl)-2-(3-(methoxymethyl)-4-(pyrimidin-2-yl)piperazin-1-yl)pyrimidine]	13333	0.9	≥ 12000	–	–
COC[C@H]1CN(c2ccccn2)CCN1c1ncc(/C=C/c2ccc(-n3cnnc3)nc2)cn1 [Example 5, (R,E)-5-(2-(6-(4H-1,2,4-triazol-4-yl)pyridin-3-yl)vinyl)-2-(2-(methoxymethyl)-4-(pyridin-2-yl)piperazin-1-yl)pyrimidine]	7500	1.6	≥ 12000	–	–
COCCOC[C@H]1CN(c2ccccn2)CCN1c1ncc(/C=C/c2ccc(-n3ccnc3)nc2)cn1 [Example 6, (R,E)-5-(2-(6-(1H-imidazol-1-yl)pyridin-3-yl)vinyl)-2-(2-((2-methoxyethoxy)methyl)-4-(pyridin-2-yl)piperazin-1-yl)pyrimidine]	100	1.8	180	–	–
COC[C@H]1CN(c2ncc(/C=C/c3ccc(-n4ccnc4)nc3)cn2)CCN1c1ncc(CO)cn1 [Example 7, (R,E)-(2-(4-(5-(2-(6-(1H-imidazol-1-yl)pyridin-3-yl)vinyl)pyrimidin-2-yl)-2-(methoxymethyl)piperazin-1-yl)pyrimidin-5-yl)methanol]	436	–	480	1.1	–
COC[C@H]1CN(c2ncc(/C=C/c3ccc(-n4ccnc4)nc3)cn2)CCN1c1ncc(CF)cn1 [Example 8, (R,E)-5-(2-(6-(1H-imidazol-1-yl)pyridin-3-yl)vinyl)-2-(4-(5-(fluoromethyl)pyrimidin-2-yl)-3-(methoxymethyl)piperazin-1-yl)pyrimidine]	10909	1.1	≥ 12000	–	–
COCc1cnc(N2CCN(c3ncc(/C=C/c4ccc(-n5ccnc5)nc4)cn3)[C@@H](COC)C2)nc1 [Example 9, (R,E)-5-(2-(6-(1H-imidazol-1-yl)pyridin-3-yl)vinyl)-2-(2-(methoxymethyl)-4-(5-(methoxymethyl)pyrimidin-2-yl)piperazin-1-yl)pyrimidine]	15000	0.8	≥ 12000	–	–
OC[C@H]1CN(c2ncc(C#Cc3ccc(-n4ccnc4)nc3)cn2)CCN1c1ncccn1 [Example 10, (R)-(4-(5-((6-(1H-imidazol-1-yl)pyridin-3-yl)ethynyl)pyrimidin-2-yl)-1-(pyrimidin-2-yl)piperazin-2-yl)methanol]	2449	–	≥ 12000	4.9	–
COC[C@H]1CN(c2ncc(C#Cc3ccc(-n4ccnc4)nc3)cn2)CCN1c1ncccn1 [Example 11, (R)-5-((6-(1H-imidazol-1-yl)pyridin-3-yl)ethynyl)-2-(3-(methoxymethyl)-4-(pyrimidin-2-yl)piperazin-1-yl)pyrimidine]	10909	1.1	≥ 12000	–	–
COC[C@H]1CN(c2cc(F)ncn2)CCN1c1ncc(/C=C/c2ccc(-n3ccnc3)nc2)cn1 [Example 13, (R,E)-5-(2-(6-(1H-imidazol-1-yl)pyridin-3-yl)vinyl)-2-(4-(6-fluoropyrimidin-4-yl)-2-(methoxymethyl)piperazin-1-yl)pyrimidine]	12000	1	≥ 12000	–	–
COC[C@H]1CN(c2cc(Cl)ncn2)CCN1c1ncc(/C=C/c2ccc(-n3ccnc3)nc2)cn1 [Example 14, (R,E)-5-(2-(6-(1H-imidazol-1-yl)pyridin-3-yl)vinyl)-2-(4-(6-chloropyrimidin-4-yl)-2-(methoxymethyl)piperazin-1-yl)pyrimidine]	9231	1.3	≥ 12000	–	–
OC[C@H]1CN(c2cc(F)ncn2)CCN1c1ncc(/C=C/c2ccc(-n3ccnc3)nc2)cn1 [Example 15, (R,E)-(1-(5-(2-(6-(1H-imidazol-1-yl)pyridin-3-yl)vinyl)pyrimidin-2-yl)-4-(6-fluoropyrimidin-4-yl)piperazin-2-yl)methanol]	12000	1	≥ 12000	–	–
COC[C@H]1CN(c2ncc(C#Cc3cnc(-c4cnn(CCF)c4)nc3)cn2)CCN1c1ncc(F)cn1 [Example 88, (R)-5-fluoro-2-(4-(5-((2-(1-(2-fluoroethyl)-1H-pyrazol-4-yl)pyrimidin-5-yl)ethynyl)pyrimidin-2-yl)-2-(methoxymethyl)piperazin-1-yl)pyrimidine]	–	0.99	–	–	–
COC[C@H]1CN(c2ncc(C#Cc3cnc(-n4cnnc4)nc3)cn2)CCN1c1ccc(F)cn1 [Example 89, (R)-5-((2-(4H-1,2,4-triazol-4-yl)pyrimidin-5-yl)ethynyl)-2-(4-(5-fluoropyridin-2-yl)-3-(methoxymethyl)piperazin-1-yl)pyrimidine]	–	2.59	–	–	–
[^3H]-(S)-6-(1H-imidazol-1-yl)-N-(2-(2-methyl-4-(pyridin-2-yl)piperazin-1-yl)pyrimidin-5-yl)nicotinamide [[^3H]-1000, reference compound]	–	–	–	–	0.9

Continued, in another order:

Selectivity ratio (Assay 2/Assay 1) [1]	Ki [1, 3] [nM]	Ki [2] [nM]	Ki [1] [nM]	Molecule	Kd ([1]; radioligand [^3H]-1000, PD brain insoluble fraction) [nM]
–	1.82	–	–	COC[C@H]1CN(c2ncc(C#Cc3ccc(-c4cnn(CCF)c4)nc3)cn2)CCN1c1ncc(F)cn1 [Example 90, (R)-5-fluoro-2-(4-(5-((6-(1-(2-fluoroethyl)-1H-pyrazol-4-yl)pyridin-3-yl)ethynyl)pyrimidin-2-yl)-2-(methoxymethyl)piperazin-1-yl)pyrimidine]	–
–	2.44	–	–	COC[C@H]1CN(c2ncc(C#Cc3cnc(-c4cnn(CCCF)c4)nc3)cn2)CCN1c1ncncn1 [Example 91, (R)-2-(4-(5-((2-(1-(3-fluoropropyl)-1H-pyrazol-4-yl)pyrimidin-5-yl)ethynyl)pyrimidin-2-yl)-2-(methoxymethyl)piperazin-1-yl)-1,3,5-triazine]	–
–	0.83	–	–	COC[C@H]1CN(c2ncc(C#Cc3ccc(-c4cnn(C)c4)nc3)cn2)CCN1c1ncc(OCCF)cn1 [Example 92, (R)-5-(2-fluoroethoxy)-2-(2-(methoxymethyl)-4-(5-((6-(1-methyl-1H-pyrazol-4-yl)pyridin-3-yl)ethynyl)pyrimidin-2-yl)piperazin-1-yl)pyrimidine]	–
–	3.06	–	–	FCCOC[C@H]1CN(c2ncc(C#Cc3cnc(-c4cnco4)nc3)cn2)CCN1c1ncccn1 [Example 93, (R)-5-(5-((2-(3-((2-fluoroethoxy)methyl)-4-(pyrimidin-2-yl)piperazin-1-yl)pyrimidin-5-yl)ethynyl)pyrimidin-2-yl)oxazole]	–
–	0.76	–	–	COC[C@H]1CN(c2ncc(C#Cc3cnc(-c4cnn(C)c4)nc3)cn2)CCN1c1cc(F)ncn1 [Example 94, (R)-2-(4-(6-fluoropyrimidin-4-yl)-3-(methoxymethyl)piperazin-1-yl)-5-((2-(1-methyl-1H-pyrazol-4-yl)pyrimidin-5-yl)ethynyl)pyrimidine]	–
–	–	–	1.3	Cn1cc(-c2ncc(C#Cc3cnc(N4CCN(c5ncncn5)[C@@H](COCF)C4)nc3)cn2)cn1 [Example 95, (R)-2-(2-((fluoromethoxy)methyl)-4-(5-((2-(1-methyl-1H-pyrazol-4-yl)pyrimidin-5-yl)ethynyl)pyrimidin-2-yl)piperazin-1-yl)-1,3,5-triazine]	–
–	5.51	–	–	Cn1cc(-c2ncc(C#Cc3cnc(N4CCN(c5ncncn5)C[C@H]4COCCF)nc3)cn2)cn1 [Example 96, (S)-2-(3-((2-fluoroethoxy)methyl)-4-(5-((2-(1-methyl-1H-pyrazol-4-yl)pyrimidin-5-yl)ethynyl)pyrimidin-2-yl)piperazin-1-yl)-1,3,5-triazine]	–
–	–	–	4.31	Cn1ccc(-c2ncc(C#Cc3cnc(N4CCN(c5ncc(F)cn5)[C@@H](COCCF)C4)nc3)cn2)n1 [Example 97, (R)-5-fluoro-2-(2-((2-fluoroethoxy)methyl)-4-(5-((2-(1-methyl-1H-pyrazol-3-yl)pyrimidin-5-yl)ethynyl)pyrimidin-2-yl)piperazin-1-yl)pyrimidine]	–
–	1.96	–	–	Cn1nccc1-c1ncc(C#Cc2cnc(N3CCN(c4ncncn4)[C@@H](COCCF)C3)nc2)cn1 [Example 98, (R)-2-(2-((2-fluoroethoxy)methyl)-4-(5-((2-(1-methyl-1H-pyrazol-5-yl)pyrimidin-5-yl)ethynyl)pyrimidin-2-yl)piperazin-1-yl)-1,3,5-triazine]	–
